Structures can show the parent of a compound that is named as a salt.
What was measured:
[1] = in vitro dissolution profile of sitagliptin phosphate from the drug film layer; assay type: physicochemical; conditions: FIG. 2
Text: FIG. 2 is a graph showing in vitro dissolution profiles for sitagliptin phosphate from the drug film layer in a pharmaceutical composition of the present invention compared to sitagliptin phosphate in JANUMET™ which is a marketed fixed-dose combination of immediate-release metformin hydrochloride and immediate-release sitagliptin phosphate.

[2] = test system: Type 2 diabetes; conditions: oral administration, human Type 2 diabetics; cited from earlier work

Row | time to complete dissolution ([1]; sitagliptin phosphate from the immediate-release drug film layer of the composition) [min] | Compound | dissolution compared with sitagliptin phosphate in JANUMET ([1]; sitagliptin phosphate from the drug film layer vs marketed immediate-release fixed-dose combination) | effect on fasting glucose, postprandial glucose excursion and HbA1c [2]
1 | ≤ 30 | N[C@@H](CC(=O)N1CCn2c(nnc2C(F)(F)F)C1)Cc1cc(F)c(F)cc1F [sitagliptin phosphate, dihydrogenphosphate salt of (2R)-4-oxo-4-[3-(trifluoromethyl)-5,6-dihydro[1,2,4]triazolo[4,3-a]pyrazin-7(8H)-yl]-1-(2,4,5-trifluorophenyl)butan-2-amine] | comparable to that of sitagliptin phosphate in JANUMET™ | 
2 |  | Cn1c(=O)cc(N2CCC[C@@H](N)C2)n(Cc2ccccc2C#N)c1=O [alogliptin] |  | reduce fasting glucose and postprandial glucose excursion in association with significantly reduced HbA1c levels
3 |  | N[C@@H](CC(=O)N1CCn2c(nnc2C(F)(F)F)C1)Cc1cc(F)c(F)cc1F [sitagliptin, (2R)-4-oxo-4-[3-(trifluoromethyl)-5,6-dihydro[1,2,4]triazolo[4,3-a]pyrazin-7(8H)-yl]-1-(2,4,5-trifluorophenyl)butan-2-amine] |  | reduce fasting glucose and postprandial glucose excursion in association with significantly reduced HbA1c levels
4 |  | N#C[C@@H]1CCCN1C(=O)CNC12CC3CC(CC(O)(C3)C1)C2 [vildagliptin] |  | reduce fasting glucose and postprandial glucose excursion in association with significantly reduced HbA1c levels

— patent US20100330177A1, “PHARMACEUTICAL COMPOSITIONS OF A COMBINATION OF METFORMIN AND A DIPEPTIDYL PEPTIDASE-IV INHIBITOR” (Merck Sharp & Dohme Corp., priority 2009, published 2010)
